Structures are written as SMILES. Entries after “also recorded” stand apart in the source; their conditions may differ. Read-outs that look alike come from different tables or passages of the source.

The test system of data set [1] is leukotriene generation by stimulated neutrophils. In words: Inhibition of leukotriene generation in A23187-stimulated neutrophils in vitro. The data set is classed as cell-based, human. The conditions noted are these: neutrophils from unsupplemented volunteers, ionophore A23187, read-out: IC50 of inhibition of leukotriene generation (LTB4 and 20-OH LTB4). How it is done:
(§1) Leukotrienes are separated by reverse phase HPLC utilizing an Ultrasphere ODS column (2.1 mm.×250 mm: Rainin Instrument Co, Woburn, Mass.) eluted with methanol/water/phosphoric acid (550:450:0.2 v/v, pH 5.7) as the mobile phase at 0.3 ml/min. After 5 min the methanol composition of the mobile phase is increased from 55% to 100% over a 20 min period. The mole quantities of each leukotriene are determined by examining its UV optical density at 270 nm. Individual peaks are integrated and their recoveries normalized by comparing these integrated areas to that of PGB2 added as an internal standard.
It is contemplated that neutrophils may also produce 8-hydroxy-9,11,14 […] from DGLA. […] Studies were also designed to examine whether 15-HETrE produced by neutrophils might influence LTB4 generation. […] Neutrophils were isolated from normal unsupplemented volunteers and were treated with various concentrations of 15-HETrE and then stimulated with ionophore A23187.

The test system of data set [2] is Δ^5 desaturase in human liver cell line HEP-G2. In words: Inhibition of DGLA conversion to AA (Δ5 desaturase) in HEP-G2 liver cells. The class given is cell-based. The settings on record: HepG2, HEP-G2, EPA at 50 μM added with DGLA, read-out: maximum inhibition of DGLA conversion to AA. From the text:
This study illustrates the effectiveness of adding a Δ^5 desaturase inhibitor in conjunction with GLA in order to reduce serum arachidonic acid.

Data set [3] relates to human neutrophils. In words: In vitro metabolism of stearidonic acid in cultured human neutrophils. The data set is classed as cell-based. The conditions noted are these: 24 h. From the text:
As described above, human neutrophils (in vitro in overnight culture) will take up GLA and elongate it to DGLA but not further desaturate that DGLA to AA. An alternative route to depleting AA in neutrophils may also be useful in modulating the inflammatory responses mediated by AA and its metabolites. It was contemplated that the n-3 fatty acid, stearidonic acid (18:4) would also be elongated in neutrophils to form ω-3 arachidonic acid (FIG. 1). Varying concentrations of stearidonic acid were provided to cultured neutrophils for 24 h. Lipids were extracted and the quantities of fatty acids determined after base hydrolysis using GC/MS.

The conditions of data set [4]: in vivo. How it is done: Serum is extracted from 2 ml of venous blood from donors. Briefly, blood samples are incubated at 37° C. for 30 min. Blood clots are removed from the serum by centrifugation (600×g, 10 min). Residual red blood cells are removed from the serum by centrifugation using a Beckman Microfuge E for 5 min. After the addition of 1.9 ml of water to a 0.1 ml aliquot of the serum, lipids are extracted by the method of Bligh and Dyer (Bligh and Dyer, Can. J. Biochem. Physiol., 37:911-920, 1959); Chilton et al., J. Biol. Chem., 258:7268-7271, 1983). A portion (5%) of the extracted lipids is used to determine the mole quantities of fatty acids by GC/MS. Serum components are isolated into individual glycerolipid classes by TLC (System II or normal phase HPLC (Bligh and Dyer, 1959).
Free fatty acids are obtained from glycerolipids by base hydrolysis using 2 N KOH (30 min, 60° C.). […] The carboxylate anion of all fatty acids of interest and [^2H3]-stearic acid and [^2H8]-arachidonate (internal standard) are analyzed by NICI GC/MS using a Hewlett Packard mass spectrometer (HP 5989A). […]
The next set of studies was designed to determine the distribution of supplemented fatty acids or their metabolites within individual glycerolipid classes of serum. […] Serum glycerolipids were separated by TLC and fractions were analyzed for fatty acid content following base hydrolysis by NICI-GC/MS.

In data set [5] the test system is neutrophils. How it is done: Free fatty acids are obtained from glycerolipids by base hydrolysis using 2 N KOH (30 min, 60° C.). After the addition of an equal volume of water, the pH of the reaction mixture is adjusted to 3 using 6 N HCl. Free fatty acids are then extracted with ethyl ether and converted to pentafluorobenzylesters using an equal volume of 20% pentafluorobenzylchloride in acetonitrile and 20% diisopropylethylamine in acetonitrile. The carboxylate anion of all fatty acids of interest and [^2H3]-stearic acid and [^2H8]-arachidonate (internal standard) are analyzed by NICI GC/MS using a Hewlett Packard mass spectrometer (HP 5989A).
Neutrophils were next obtained from subjects before and after supplementation and stimulated with ionophore A23187.

In data set [6] the test system is neutrophils. The settings on record: 3.0 g/day GLA. How it is done:
as §1
To examine this question, neutrophils were stimulated and the synthesis of LTB4, 20-OH LTB4, and the 6 trans isomers of LTB4 were measured by reverse phase HPLC analysis.

For data set [7], the system named is neutrophils. The settings on record: 3.0 g/day GLA. From the text:
A final set of studies measured changes in the capacity of neutrophils to generate PAF ex vivo before and after GLA supplementation.
This is another data set of the same source.

In data set [8] the test system is human neutrophils. In words: In vitro metabolism of GLA / DGLA in cultured human neutrophils. The data set is classed as cell-based. How it is done:
It is generally assumed that the liver has a key role in the in vivo elongation and desaturation of n-6 fatty acids. However, the role of other cells (especially inflammatory cells) and tissues has not been extensively studied. In addition, it is critical to evaluate the mechanism of leukotriene inhibition in less complex (than in vivo model) systems. To begin to address these problems, the inventor developed a model in which neutrophils could be incubated long-term with fatty acids or other fatty acid derivatives. Human neutrophils have been isolated and cultured overnight in RPMI, 2% insulin-transferrin and fetal bovine serum (FBS). In initial studies, varying concentrations of GLA (complexed to albumin) were provided to these cultured neutrophils for 24 h. […] In contrast, there was no change in the quantity of AA in neutrophil phospholipids. […] Furthermore, they provide direct evidence that the neutrophils themselves can elongate GLA […].
It has been long recognized that arachidonate is hydrolyzed from membrane glycerolipids by phospholipase A2 isotypes during cell stimulation. However, to date, there is little direct evidence that similar mechanisms exist to mobilize DGLA. To examine this question, neutrophils that had been cultured with varying concentrations of GLA (0 to 200 nmol) were stimulated with ionophore A23187, and mobilized fatty acids were measured by NICI GC/MS. […] To determine if neutrophils can further metabolize DGLA to oxygenated products, stimulated cells were provided [^14C]-DGLA and products were measured by reverse HPLC. […] FIG. 11 illustrates that A23187 stimulated neutrophils produce a labeled product that migrated with 15-HETrE.

The test system of data set [9] is human eosinophils. The conditions noted are these: eosinophils from atopic subjects incubated with GLA. How it is done:
Eosinophils are purified by negative, immunomagnetic selection using monoclonals against FcKRIII (CD 16) present on neutrophils. Antibody tagged neutrophils are then incubated with anti-mouse IgG conjugated magnetic beads and removed by filtration over a magnetized steel wool column.
Therefore, it was important to determine how GLA was metabolized by human eosinophils. Thus, eosinophils were isolated from atopic subjects and incubated with GLA as described above.

In data set [10] the test system is atopic asthmatics. From the text:
Clinical data on each patient is entered into a database consisting of the following elements. Demographic data (age, sex, race, smoking history), and the data elements used to fulfill the above diagnostic criteria, spirometric data, presence of atopy (positive “prick” skin testing to respirable antigens), presence of LAR to inhaled antigen, and presence of allergic rhinoconjunctivitis. • Allergen skin testing—Atopic asthmatic subjects are identified by skin testing using the skin prick method at a 1:10 (wt/vol) dilution of 20 stock antigen solutions (Greer Laboratories, Lenoir, N.C.). Subjects must not be receiving immunotherapy, nor may they be treated with systemic corticosteroids for a minimum of 4 wk. Short acting antihistamines are avoided for at least 24 h and long acting for at least 7 days. Atopic subjects are defined as those with a positive response consisting of a wheal of at least 3 by 3 mm to one or more antigens, with an appropriately negative saline control. • Allergen Inhalation Challenge—The immediate (early) asthmatic response (EAR) or late asthmatic response (LAR) is studied under controlled conditions using inhaled antigenic challenge in volunteer patients with asthma using a previously described protocol (Smith et al., Clin. Pharm. Ther., 54:430-436, 1993). Atopic asthmatics undergo inhaled allergen challenge followed by BAL according to the following protocol. Subjects must have no lung disease other than asthma, and, on the day of testing, must have a baseline FEV1>70% of predicted. Subjects must not be receiving immunotherapy, nor may they be treated with cromolyn sodium or corticosteroids (inhaled or systemic) or leukotriene antagonist for a minimum of 4 wk. Short-acting antihistamines are avoided for at least 24 h and intermediate acting for 7 days (astemizole for 6 weeks). Theophylline preparations are withheld for 24 h prior to challenge and beta-agonists for 8 h prior to challenge. On the day of challenge, subjects must be wheeze-free, with an FEV1>than 80% of the previously observed highest value. If the patient has an intercurrent respiratory infection, inhalation challenge is postponed for at least 6 wk. Antigens to which the subject is perennially exposed (e.g., mite, cat) are utilized whenever possible to minimize the impact of seasonal variations in environmental exposure to the specific antigen. Further, antigen testing is conducted out of the respective allergen season, or after attempts to minimize environmental exposure (e.g., to mites or cats) have been implemented. Antigenic challenge generally begins between 7:30 and 8:00 am and the patient is monitored for a minimum of 12 h following antigenic challenge. […] The subject breathes quietly from a continuous hand-held nebulizer for 2 min at each concentration. Following each concentration, the FEV1 is measured at 5 min intervals (DS Plus, Warren E. Collins, Inc., Braintree, Mass.). […] Once a 20% drop in FEV1 is measured, or following the highest concentration, spirometry is performed every 15 min for the first hour and then hourly for the next 11 h.

Data set [11] relates to atopic asthmatics. In words: Inhaled antigen challenge model of atopic asthma with prednisone. The class given is in vivo, human. The settings on record: 40 mg prednisone daily for 7 days. The source says: Clinical data on each patient is entered into a database consisting of the following elements. Demographic data (age, sex, race, smoking history), and the data elements used to fulfill the above diagnostic criteria, spirometric data, presence of atopy (positive “prick” skin testing to respirable antigens), presence of LAR to inhaled antigen, and presence of allergic rhinoconjunctivitis. • Allergen skin testing—Atopic asthmatic subjects are identified by skin testing using the skin prick method at a 1:10 (wt/vol) dilution of 20 stock antigen solutions (Greer Laboratories, Lenoir, N.C.). Subjects must not be receiving immunotherapy, nor may they be treated with systemic corticosteroids for a minimum of 4 wk. Short acting antihistamines are avoided for at least 24 h and long acting for at least 7 days. […] Antigenic challenge generally begins between 7:30 and 8:00 am and the patient is monitored for a minimum of 12 h following antigenic challenge. […] Following each concentration, the FEV1 is measured at 5 min intervals (DS Plus, Warren E. Collins, Inc., Braintree, Mass.). […] Once a 20% drop in FEV1 is measured, or following the highest concentration, spirometry is performed every 15 min for the first hour and then hourly for the next 11 h.

The mark [12] stands for this setting: 4.5 g GLA as borage oil, 3 weeks, contemplated.

For the compound `CCCCCC(O)/C=C/C=C\C/C=C\CCCCCCC(=O)O` (centres unmarked) [15-HETrE, 15-OH-20:3, reference compound], the IC50 in [1] is ~5 µM.

For the compound `CC/C=C\C/C=C\C/C=C\C/C=C\C/C=C\CCCC(=O)O` [EPA, eicosapentaenoic acid], in data set [2], the inhibition at 50 µM was determined as 50%.

Turning to `CC/C=C\C/C=C\C/C=C\C/C=C\CCCCC(=O)O` [stearidonic acid], in data set [3], the AA in neutrophils result is on record as “nor was there an increase” and the “eicosapentaenoic acid (Δ5 desaturase product of ω-3 arachidonic acid) in neutrophils” value was “no increase”. The “ω-3 arachidonic acid in neutrophil glycerolipids” value in [3] (varying concentrations of stearidonic acid) was “dose-dependent increase; also recorded: dramatic increase”.

In the case of `CCCCC/C=C\C/C=C\C/C=C\CCCCCCC(=O)O` [DGLA, dihomogammalinolenic acid], the IC50 in [1] (Homo sapiens, Neutrophil) is ~10 µM.

As to `CCCCC/C=C\C/C=C\C/C=C\CCCCC(=O)O` [GLA, gammalinolenic acid], in data set [4], the “AA in serum lipids vs baseline” value was “significantly increased”. The “increase in release of DGLA from stimulated neutrophils” value (“increase in release of DGLA” below) in data set [5] (1.5 g/day GLA) was 63%. Further, the “increase in release of DGLA” value in data set [5] (3.0 g/day GLA) is on record as 65%. Further, the “increase in release of DGLA” value in data set [5] (6.0 g/day GLA) stood at 69%. For the same compound, the “release of AA from neutrophil glycerolipids after A23187 stimulation” value in data set [5] (following GLA supplementation) is “did not change”. In addition, in data set [6], the “20-OH LTB4, 6-trans LTB4 and 6-trans 12-epi LTB4 levels after supplementation” value is listed as “decreased to a similar degree”; the “reduction in LTB4 produced by stimulated neutrophils vs before supplementation” value was 60%. Also, in data set [7], the “reduction in PAF produced by neutrophils vs before supplementation” value came out at 40%. In addition, in [8] (cultured neutrophils, varying concentrations of GLA complexed to albumin, 24 h), the “quantity of DGLA in neutrophil glycerolipids” value is “increased as a function of the concentration of GLA”. In addition, the “quantity of AA in neutrophil phospholipids” value in [8] (cultured neutrophils, varying concentrations of GLA, 24 h) is “no change”. Also, the “fatty acids mobilized on A23187 stimulation” value in data set [8] (neutrophils cultured with GLA (0 to 200 nmol)) is recorded as “DGLA along with AA were released”. Moreover, in data set [9], the “DGLA in eosinophil glycerolipids” value is “marked increase” and the “quantity of AA in eosinophil glycerolipids” value is on record as “no change”. For the same compound, in data set [10] (setting [12]), the “antigen-induced urinary LTE4 and BALF AA increases” value is listed as “attenuate”; the “influx of eosinophils into airways during the LAR” value is on record as “reduce”; the “response to antigen challenge (decrements in FEV1, immediate and late)” value is listed as “mitigate”. For the same compound, in data set [10] (four weeks GLA supplementation, compared to pre- and post-supplementation, two subjects), the “magnitude of the early asthmatic response” value is on record as “diminished”. The late asthmatic response entry in data set [10] (four weeks GLA supplementation, two subjects) was “did not influence”.

As for `C[C@]12C=CC(=O)C=C1CC[C@@H]1[C@@H]2C(=O)C[C@@]2(C)[C@H]1CC[C@]2(O)C(=O)CO` [prednisone], in data set [11], the “immediate response and LAR (fall in FEV1) after antigen challenge” value is reported as “ablated”. Moreover, in data set [11] (p=0.03), the “level of eosinophil cationic protein (ECP) in BALF after antigen challenge” value is “suppressed”.

For orientation: inhibition means the relative decrease from the control value, in per cent.

(Values after patent US8247449B2, “Methods and compositions for the treatment of asthma” (Wake Forest University, priority 1998, dated 2012).)
